Laboratory results reported in US12325681B2, “Inhibitors of nitric oxide synthases (NOS), pharmaceutical products thereof, and methods thereof” (Gacter Inc., priority 2022, dated 2025).
Where two headings read alike, the source gives them in different places. Each block holds one compound with its values, some of them ahead of it.

Tests used:
iNOS [1] = target: T1, iNOS (Homo sapiens, UniProt P35228); assay: abcam NOS Inhibitor Screening Kit, IC50 (fluorescence); format: biochemical; set-up: IC50
Procedure: The IC50 of some compounds of the invention was determined using the abcam NOS Inhibitor Screening Kit. The procedure includes the following steps: (1) Dissolved a test compound to 10 mM in DMSO; (2) Diluted the test compound to 1 mM in NOS Assay Buffer; (3) Diluted 1 mM of the test compound stocks to 200 μM, 50 μM, 12.5 μM, 3.125 μM, 0.781 μM, and 0.195 μM in NOS Assay Buffer; (4) Diluted 1 mM DPI Control to 50.0 μM, 12.5 μM, 3.125 μM, 0.781 μM, 0.195 μM, and 0.0488 μM in NOS Assay Buffer; (5) Diluted NOS enzyme with 400 μL of NOS Assay Buffer; (6) Combined Diluted NOS Enzyme with 1.6 mL of NOS Assay buffer then transferred 20 μL of enzyme solution to all wells of 96-well Fluorescence plate except background wells. Added 20 μL of NOS Assay buffer to background wells. (7) Transferred 10 uL of each test compound dilution to the enzyme buffer mix according to the plate map (see addendum for plate map and raw data values). (8) Incubated 15 minutes at room temperature. (9) Added 11 μL of NOS reaction mix (according to manufacturer's protocol) to each well, mixed, and incubated at 37° C. for 1 hour. […] Measure Fluorescence at 360 nm excitation/450 nm emission.

mice = conditions: cited from earlier work
rats = conditions: cited from earlier work
iNOS [2] = target: T1, iNOS; conditions: in words; cited from earlier work
iNOS [3] = target: T1, iNOS; assay: abcam NOS Inhibitor Screening Kit, IC50 (fluorescence); format: biochemical; set-up: Fold (GT-xxxx)/AZ 6b; conditions: ratio of IC50 to AZ 6b IC50 (0.0488 μM)
Procedure: (§1) The IC50 of some compounds of the invention was determined using the abcam NOS Inhibitor Screening Kit. The procedure includes the following steps: (1) Dissolved a test compound to 10 mM in DMSO; (2) Diluted the test compound to 1 mM in NOS Assay Buffer; (3) Diluted 1 mM of the test compound stocks to 200 μM, 50 μM, 12.5 μM, 3.125 μM, 0.781 μM, and 0.195 μM in NOS Assay Buffer; (4) Diluted 1 mM DPI Control to 50.0 μM, 12.5 μM, 3.125 μM, 0.781 μM, 0.195 μM, and 0.0488 μM in NOS Assay Buffer; (5) Diluted NOS enzyme with 400 μL of NOS Assay Buffer; (6) Combined Diluted NOS Enzyme with 1.6 mL of NOS Assay buffer then transferred 20 μL of enzyme solution to all wells of 96-well Fluorescence plate except background wells. Added 20 μL of NOS Assay buffer to background wells. (7) Transferred 10 uL of each test compound dilution to the enzyme buffer mix according to the plate map (see addendum for plate map and raw data values). (8) Incubated 15 minutes at room temperature. (9) Added 11 μL of NOS reaction mix (according to manufacturer's protocol) to each well, mixed, and incubated at 37° C. for 1 hour. (10) Added 110 μL of NOS Assay Buffer to each well followed by 5 μL of Enhancer to each well, mixed, and incubated 10 minutes at room temperature; (11) Added 10 μL of Probe to each well, mixed, and incubated 10 minutes at room temperature; and (12) Added 5 μL of NaOH to each well, mixed, and incubated 10 minutes at room temperature. Measure Fluorescence at 360 nm excitation/450 nm emission.

iNOS [4] = target: T1, iNOS; assay: as above; format: biochemical; set-up: IC50; IC50; conditions: abcam NOS Inhibitor Screening Kit
Procedure: as §1

T1 sequence (P35228 whole entry): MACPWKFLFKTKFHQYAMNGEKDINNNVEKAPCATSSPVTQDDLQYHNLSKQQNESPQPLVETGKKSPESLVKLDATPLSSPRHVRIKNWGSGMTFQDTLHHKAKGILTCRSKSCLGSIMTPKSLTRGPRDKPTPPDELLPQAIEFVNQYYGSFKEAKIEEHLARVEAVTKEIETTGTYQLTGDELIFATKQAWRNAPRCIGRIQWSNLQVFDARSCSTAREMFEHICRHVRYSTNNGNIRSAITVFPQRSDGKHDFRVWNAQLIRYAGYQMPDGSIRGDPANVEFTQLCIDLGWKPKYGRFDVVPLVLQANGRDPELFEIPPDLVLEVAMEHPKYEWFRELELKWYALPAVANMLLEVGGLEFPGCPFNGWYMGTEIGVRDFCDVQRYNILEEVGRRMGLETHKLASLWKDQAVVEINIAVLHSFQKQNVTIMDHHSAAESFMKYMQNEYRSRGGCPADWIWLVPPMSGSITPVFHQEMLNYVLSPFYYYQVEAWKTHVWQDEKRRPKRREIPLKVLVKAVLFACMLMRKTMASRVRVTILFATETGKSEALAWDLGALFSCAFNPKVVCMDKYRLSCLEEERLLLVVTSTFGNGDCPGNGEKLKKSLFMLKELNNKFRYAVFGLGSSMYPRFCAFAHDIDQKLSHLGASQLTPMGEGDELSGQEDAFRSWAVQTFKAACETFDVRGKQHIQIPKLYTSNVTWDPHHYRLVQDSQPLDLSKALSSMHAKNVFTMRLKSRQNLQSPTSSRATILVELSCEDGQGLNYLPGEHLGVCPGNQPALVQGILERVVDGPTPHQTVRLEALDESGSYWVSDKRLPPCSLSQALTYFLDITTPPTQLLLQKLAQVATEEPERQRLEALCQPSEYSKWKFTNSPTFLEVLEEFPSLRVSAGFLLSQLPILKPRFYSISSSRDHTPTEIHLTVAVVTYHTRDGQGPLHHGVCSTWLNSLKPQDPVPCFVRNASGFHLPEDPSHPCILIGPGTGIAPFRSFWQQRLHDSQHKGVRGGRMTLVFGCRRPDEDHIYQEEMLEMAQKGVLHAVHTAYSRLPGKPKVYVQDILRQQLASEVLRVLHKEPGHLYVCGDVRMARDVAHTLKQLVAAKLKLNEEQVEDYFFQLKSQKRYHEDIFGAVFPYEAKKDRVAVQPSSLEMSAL

IC50 (iNOS [1]): 0.0488 µM
SMILES: N#Cc1ccc(Cl)cc1O[C@H](CCN)c1ccccc1 [AZ 6b, (R)-2-(3-amino-1-phenylpropoxy)-4-chlorobenzonitrile, reference compound]

SMILES: N=C(N)SCCc1ccc(CCSC(=N)N)cc1 [PBIT, S,S′-1,4-phenylene-bis(1,2-ethanediyl)bis-isothiourea]
acutely toxic at doses as low as (mice): 10 mg/kg
acutely toxic at doses as low as (rats): 10 mg/kg
selectivity of inhibition iNOS to eNOS (iNOS [2]): does not exhibit necessary selectivity

Fold (GT-xxxx)/AZ 6b (iNOS [3]): 1.31
IC50 (iNOS [4]; Table C-1): 0.064 µM
IC50 (iNOS [4]; Table C-2): 0.064 µM
SMILES: Cl.N#Cc1ccc(Cl)cc1CN(CCN)c1ccccc1 [GT-7003, 2-(((2-aminoethyl)(phenyl)amino)methyl)-4-chlorobenzonitrile hydrochloride]
